Reference: US20140271922A1, “PIRENZEPINE AS AN AGENT IN CANCER TREATMENT” (PROTEOSYS AG, priority 2009, published 2014)
Entries after “also recorded” stand apart in the source; their conditions may differ.

Tested on: Human H460 Large Cell Lung Cancer (NCI-H460 human NSCLC cells)
Test: Tumor growth in the H460 lung tumor xenograft model
Format: in vivo, Female NMRI nude mice
Conditions: for effect on tumor growth, single agent (in words): PSY 310 alone, 50 mg/kg/d po, 50 mg/kg/day; for potentiation of the cytostatic effects of cisplatin (in words): PSY 310 po co-administered with cisplatin ip
Experimental: PSY 310 was tested with 2 different dosing schedules of cisplatin. • Animals: Female NMRI nude mice (Janvier, Le Genest St Isle, France), age: 6-7 weeks at start of experiment Janvier, Le Genest St Isle, France; age 5-6 weeks). 70 animals were inoculated at the beginning of the experiment. • Cells: Human H460 Large Cell Lung Cancer (ATCC: HTB-177); • 3×10^6 cells from cell culture was inoculated subcutaneously per mouse in a volume of 200 μl on day 0. • Application route: subcutaneously; • 1 tumor/mouse • Tumor volume at • start of therapy: 62.5-100 mm^3 • (formula: a×b^2×0.5; a: length, b width) • Test compounds: Cisplatin, • PSY 310 (Pirenzepine) • Dosing: Cisplatin • 1) high dose: 1×/week, 2 weeks (days 7, 14) • dose: 2.5 mg/kg/day; route: ip • 2) low dose 5×/week, 2 weeks (days 7-11+14-18) • dose: 0.15 mg/kg/day; route: ip • PSY 310 • 1×/day for 12 days (days 7-19) • dose: 50 and 20 mg/kg/day; route: po • Vehicle/solvent: Cisplatin:water for injection • PSY 310: PBS, oral gavage • Application volume: 10 ml/kg • Criteria for study termination: Animal weight loss >20% • Tumor >10% body weight or ulceration of tumors • Parameters: […] [table] [table] NCI-H460 human NSCLC cells were implanted in the flanks of immunodeficient mice and growth of the resultant solid tumors was recorded. Mice were assigned to seven treatment groups as indicated above. Tumor dimensions (and animal body weights) were measured on days 10, 14, 17, and 21 after inoculation, and tumor volumes were calculated. As tumor growth was close to exponential evaluations were performed on the common logarithms of tumor volumes in order to render the data suitable for evaluation by a linear model. […] Alternatively, the ratios log(volume)/log(initial volume) were employed, yielding very similar results. Tumors with extremely small initial volumes (<20 μl) in which volume measurements are expected to be rather imprecise were omitted from the evaluations. Comparisons were carried out in the following way: • The slopes of log(volume) over time (i.e. the exponent of the approximately exponential volume growth) were determined for each animal. The ratios of the exponents averaged over the respective groups are given as a measure of the magnitude of the growth retarding effect of the current treatment. • Multivariate variance analyses using the day of measurement and Cisplatin/PSY 310 treatment as model effects were performed.

Structure (SMILES)	exponent ratio (ratio of group-averaged slopes of log(tumor volume) over time) (Cisplatin high (2.5 mg/kg/day ip) versus Cisplatin low (0.15 mg/kg/day ip), ANOVA p = 0.91)	exponent ratio (ratio of group-averaged slopes of log(tumor volume) over time) (Cisplatin high (2.5 mg/kg/day ip, 1x/week, 2 weeks) versus Control, ANOVA p = 0.014)	exponent ratio (ratio of group-averaged slopes of log(tumor volume) over time) (Cisplatin low (0.15 mg/kg/day ip, 5x/week, 2 weeks) versus Control, ANOVA p = 0.077)	effect on tumor growth of cisplatin alone (in words) (cisplatin ip, low and high dose regimens)	exponent ratio (ratio of group-averaged slopes of log(tumor volume) over time) (PSY 310 50 mg/kg/day po alone (1x/day, 12 days) versus Cisplatin high, ANOVA p = 0.016)	exponent ratio (ratio of group-averaged slopes of log(tumor volume) over time) (PSY 310 50 mg/kg/day po alone (1x/day, 12 days) versus Control, ANOVA p = 0.0003)	effect on tumor growth, single agent (in words)	effect on tumor growth, single agent (in words) (listed as Pirenzepine)	potentiation of the cytostatic effects of cisplatin (in words)	potentiation of the cytostatic effects of cisplatin (in words) (listed as Pirenzepine)
N.N.[Cl][Pt][Cl] [Cisplatin]	0.96	0.81	0.85	moderate effects	–	–	–	–	–	–
CN1CCN(CC(=O)N2c3ccccc3C(=O)Nc3cccnc32)CC1 [PSY 310]	–	–	–	–	0.74	0.61	even more effective than cisplatin-low dose and cisplatin-high dose regimens; also recorded: single agent cytostatic properties; also recorded: major effect	significant anti-cancer activity by itself	potentiating the cytostatic effects of cisplatin	significant potentiating anti-cancer activity
